Patent US7264932B2, “Nuclease inhibitor cocktail” (Applera Corporation, priority 1999, dated 2007)
Several values for one entry are separate records, joined by “and”; a condition that tells them apart may be missing. Equal entries are not always repeated.

Experiments:
[1] = biological target: nuclease (Homo sapiens, UniProt P03950); experiment: Ki of Lead 1 and Lead 2 analogs (Tables 1 and 2); type: biochemical; conditions: Table 1, Lead 1 Analog List
[2] = test system: diluted pancreas lysate; experiment: Intactness of total RNA (RNA LabChip), diluted pancreas lysate; type: biochemical, mouse
Experimental: A total of 100 pg/ul e. […].
Pancreatic lysate (0.1 mg/ml) was diluted 1:20,000 in 24 mM Hepes, pH 7.2, 50 mM NaCl, 1 mM MgCl2 and pre-incubated with either 1% SDS or 6.25 mM OVA for 30 s prior to the addition of 2 ug mouse liver total RNA. Reactions were incubated at 25 C for an additional 4 min, quenched, and analyzed on an RNA LabChip.
Mouse pancreatic tissue (5 mg) was disrupted in 50 ul of 24 mM Hepes, pH 7.2, 50 mM NaCl, 1 mM MgCl2. The diluted lysate (1:20,000) was pre-incubated with 50 uM Benzopurpurin B (BpB) for 30 sec and then added to 100 ng/ul mouse liver total RNA (Ambion) and incubated at 23 C for an additional 4 min. Samples were quenched in a guanidinium lysis buffer, and the RNA purified via MEGAclear™ MAG-96 and eluted with 20 ul nuclease-free water. […] These experiments were conducted in the same fashion except that 100 uM BpB was employed. The sample (1 ul) was analyzed by 2100 BioAnalyzer software (Agilent) after separation on an RNA LabChip.
Mouse pancreatic tissue (5 mg) was dounced in 50 ul of 24 mM Hepes, pH 7.2, 50 mM NaCl, 1 mM MgCl2. A diluted lysate (1:20,000) was pre-incubated with 100 uM BpB or the analog Benzopurpurin 4B (Bp4B) for 30 sec and then added to 100 ng/ul mouse liver total RNA (Ambion) and incubated at 23 C for an additional 4 min. Samples were quenched in a guanidinium lysis buffer, and the RNA purified via MEGAclear™ MAG-96 and eluted with 20 ul nuclease-free water. The sample (1 ul) was analyzed by 2100 BioAnalyzer software (Agilent) after separation on an RNA LabChip.
Pancreatic tissue (5 mg) was dounced in 50 ul of 24 mM Hepes, pH 7.2, 50 mM NaCl, 1 mM MgCl2. The lysate was diluted (1:20,000) and then pre-incubated with 200 uM of 467929. […] All samples were pre-incubated for 30 sec before being added to 100 ng/ul mouse liver total RNA (Ambion) and incubated at 23C for an additional 4 min. The RNA was then immediately purified via MEGAclear™ MAG-96 and eluted with 20 ul nuclease-free water. The recovered RNA (1 ul) was analyzed by 2100 BioAnalyzer software after separation on an RNA LabChip.

[3] = test system: RNase A, 1, and T1; experiment: Anti-RNase antibodies / Specific Anti-RNase Cocktail with added non-antibody inhibitor; type: biochemical; conditions: for effect on action of Specific Anti-RNase Cocktail against RNase A, 1, and T1: detergent added to cocktail at 0.1% to 1%
Experimental: The activity of an anti-nuclease cocktail is readily determined using radiolabeled RNA or DNA to detect the inhibition of nuclease by anti-nuclease antibodies in the anti-nuclease cocktail. […] Assay buffer, nuclease and an anti-nuclease cocktail are then added to 0.5 ml microfuge tubes. A mixture comprising assay buffer, RNA or DNA and radiolabeled RNA or DNA is added to the microfuge tubes, and the tubes are vortexed and microfuged. After incubation of the tubes at 37° C. for 30 minutes, a portion of the tube contents is removed and placed into gel loading buffer. After mixing, the combination is loaded onto a gel, typically a 8M urea/5% acrylamide gel, which is exposed to film.
Radiolabeled RNA was used to detect the inhibition of RNase A, RNase T1, and RNase 1 by specific antibodies.
The “MIX” was prepared by combining 10× Assay Buffer (0.9 μl/rxn), 5 mg/ml yeast RNA (0.4 μl/rxn), ^32P-labeled β actin RNA (1 μl/rxn), and nuclease-free H2O (6.7 μl/rxn), for a total of 9 μl/rxn.
1× Assay Buffer was added first. Then Specific RNase Cocktail, Specific Anti-RNase Cocktail and MIX were added. The tubes are vortexed and microfuged, then incubated at 37° C. for 30 min (Table 9).
At the end of the incubation time, 10 μl of solution was removed from the tube and placed into 10 μl Gel Loading Buffer II. The combination was mixed thoroughly and loaded onto a 8M urea/5% acrylamide gel. The gel was exposed to film for 30 min. at −80° C. with an intensifying screen.

[4] = biological target: DNase I (Bos taurus, UniProt P00639); experiment: Lambda DNA digestion assay with DNase I; type: biochemical; conditions: 0.1 U DNase, inhibitor at 5×Ki
Text: One application for small molecule RNase inhibitors is as an RNA control agent during enzymatic manipulation of solutions containing RNA. These reactions include in vitro transcription, in vitro translation, DNase digestion, and reverse transcription, among others. […] […] […] All reactions were quenched with EDTA and the cleavage products resolved on a 1% agarose gel.
As a result, compounds such as #467929, 140553, and 180582 may have utility in curbing the activity of residual RNases that may carry over from RNA isolation methods during DNase treatments of the RNA.

[5] = biological target: MMLV RT RNase H (Moloney murine leukemia virus, UniProt P03355); experiment: RT-based RNase H cleavage of RNA:DNA hybrid; type: biochemical
Experimental: As described above, Chembridge compound #467929 offered protection from several RNA-specific endonucleolytic activities. […] A 20-mer DNA oligonucleotide was asymmetrically annealed to a 1500 base synthetic RNA to create an RNA:DNA duplex substrate for RNase H. Reactions were initiated with 10 U of MMLV RT in 1× RT buffer (50 mM TrisCl pH 8.3, 75 mM KC, 3 mM MgCl2, 5 mM DTT) containing 500 ng/ul RNA:DNA hybrid. All reactions contained 5% DMSO either with or without the small molecule RNase inhibitor. Samples were incubated for 5 min at 37 C, and quenched with EDTA. Products were resolved on an RNA LabChip. Cleavage products were observed as two equally represented RNA species of 1000 and 500 bases. Product length and yield were determined using the 2100 BioAnalyzer software (Agilent). Table 18 details the level of inhibition of MMLV RT RNase H that is observed as a function of the concentration of compounds 467929 and 227726.

[6] = test system: one-step RT-PCR with MMLV-RT and SuperTaq, human CDC-2 mRNA; experiment: One-step qRT-PCR tolerance, human CDC-2; type: biochemical
Experimental: The compatibility of #467929 and 227726 were tested in Ambion's MessageSensor RT-PCR Kit according to the supplier's instructions and using primers/probe designed to amplify a ˜100 nt amplicon from the human CDC-2 mRNA. The reaction conditions were: 20-ul one-step RT-PCR with MMLV-RT (0.4 U/ul final) and SuperTaq (0.04 U/ul final). The cycling conditions were: Stage 1. 42 C for 15 minutes Stage 2. 95 C for 5 min, Stage 3. 95 C-15 sec and 60 C-60 sec where Stage 3 is repeated 40 times. The input template was HeLa-S3 total RNA at either 1 ng or 10 ng/reaction. […] Consequently, these compounds may have utility in controlling any RNA degradation that might occur during the cDNA synthesis step of RT-PCR.

Chain of nuclease (P03950 25-147): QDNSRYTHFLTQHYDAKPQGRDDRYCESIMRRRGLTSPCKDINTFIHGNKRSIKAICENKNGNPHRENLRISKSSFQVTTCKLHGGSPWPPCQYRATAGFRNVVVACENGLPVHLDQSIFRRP
Chain of DNase I (P00639 23-282): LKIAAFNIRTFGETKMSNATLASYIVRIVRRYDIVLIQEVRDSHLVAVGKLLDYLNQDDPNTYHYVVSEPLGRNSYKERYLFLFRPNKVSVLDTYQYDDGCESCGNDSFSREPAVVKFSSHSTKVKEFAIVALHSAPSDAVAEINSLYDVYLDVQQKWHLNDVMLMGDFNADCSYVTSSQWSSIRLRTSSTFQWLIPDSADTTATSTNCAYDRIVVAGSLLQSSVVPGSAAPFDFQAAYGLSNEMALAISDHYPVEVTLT

## eriochrome black T [erio-chromeblack T]
[1]
  Ki: 50 µM

## Nc1c(OCC(=O)O)ccc2cc(S(=O)(=O)O)ccc12 [compound 16163]
[1]
  KI: in-activeat 75uM

## O=C(O)CC(O)(CC(=O)O)C(=O)O [citrate, reference compound]
[2]; 50 mm citrate, pancreas lysate 1:20,000, e. coli total rna, room temperature 4 min
  protection of total RNA from degradation: significant protection

## NP-40
[3]
  effect on action of Specific Anti-RNase Cocktail against RNase A, 1, and T1: strengthened the action of Specific Anti-Rnase Cocktail against RNase A, 1, and T1.

## Cc1ccccc1/N=N/c1ccc(/N=N/c2c(O)ccc3cc(S(=O)(=O)O)cc(S(=O)(=O)O)c23)c(C)c1 [compound 45601]
[1]
  Ki: 122 µM

## O=C(Nc1cc(S(=O)(=O)O)cc2cc(S(=O)(=O)O)cc(O)c12)c1ccccc1 [compound 16169]
[1]
  KI: in-activeat 75uM

## C[C@H](CCC(=O)NCCC[N+](C)(C)CCCS(=O)(=O)[O-])[C@H]1CC[C@H]2[C@@H]3[C@H](O)C[C@@H]4C[C@H](O)CC[C@]4(C)[C@H]3C[C@H](O)[C@]12C [CHAPS]
[3]
  effect on action of Specific Anti-RNase Cocktail against RNase A, 1, and T1: strengthened the action of Specific Anti-Rnase Cocktail against RNase A, 1, and T1.

## cefsulodin [reference compound]
[1]
  Ki: 201 µM

## Cc1ccc(C)n1-c1cccc(C(=O)O)c1 [compound 128773, 3-(2,5-dimethyl-1H-pyr-rol-1-yl)benzoic acid]
[4]
  DNase inhibition: modestly inhibitory

## Cc1cc(/N=N/c2ccc(S(=O)(=O)O)c3ccccc23)ccc1O [compound 45557]
[1]
  Ki: > 500 µM

## [Cl-].[Cl-].[Mg+2] [MgCl2]
[3]; MgCl2 mixed together with cocktail
  effect of mixing with Specific Anti-RNase Cocktail: best

## O=S(=O)(O)c1ccc(-c2ccc(/N=N/c3c(O)ccc4cc(S(=O)(=O)O)ccc34)cc2)cc1 [D726712]
[1]
  Ki: ~350 µM

## Cc1ccc(S(=O)(=O)Nc2ccc(Cc3ccc(NS(=O)(=O)c4ccc(C)cc4)c(C(=O)O)c3)cc2C(=O)O)cc1 [compound 180582, 3,3′-methylenebis(6-[4-meth-ylphenylsulfonyl]a-mino)benzoic acid]
[4]
  DNase inhibition: little or no DNase inhibition

## NCCCCNCCCN [spermidine]
[3]; 5 mM spermidine mixed with cocktail
  effect on anti-RNase A, 1, and T1 activity of Specific Anti-RNase Cocktail: 5 Mm spermidine mixed with Specific Anti-RNase Cocktail enhanced anti-RNase

## N#CS.N=C(N)N [guanidine thiocyanate]
[3]
  effect on Specific Anti-RNase Cocktail: more inhibitory against different antibodies.

## O=C(O)C1=NN(c2ccccc2)C(=O)\C1=C/C=C/C=C/C1C(=O)N(c2ccccc2)N=C1C(=O)O (stereo not shown) [compound 102704, 4-[5-(3-carboxy-5-oxo-1-phe-nyl-1,5-dihydro-4H-pyra-zol-4-ylidene)-1,3-penta-dien-1-yl]-5-hy-droxy-1-phenyl-1H-pyra-zole-3-carboxylic acid]
[4]
  DNase inhibition: modestly inhibitory

## Triton X-100
[3]
  effect on action of Specific Anti-RNase Cocktail against RNase A, 1, and T1: strengthened the action of Specific Anti-Rnase Cocktail against RNase A, 1, and T1.

## O=C(N/N=C(\c1ccccc1)c1ccncc1)c1ccccc1 [compound 227726, N′-[phenyl(4-pyri-dinyl)meth-ylene]benzohydrazide]
[4]
  DNase inhibition: modestly inhibitory
[5]; inhibitor 100 uM
  % Cleavage: 45%
[5]; inhibitor 524 uM
  % Cleavage: 43%
[5]; inhibitor 1000 uM
  % Cleavage: 47%
[6]
  concentration tolerated in RT-PCR: at least 1.3 mM
[6]; Input RNA = 1 ng, inhibitor 130 uM
  Cycle Threshold: 26.01 and 26.08
[6]; Input RNA = 1 ng, inhibitor 655 uM
  Cycle Threshold: 26.14 and 26.18
[6]; Input RNA = 1 ng, inhibitor 1.3 mM
  Cycle Threshold: 26.08 and 26.18
[6]; Input RNA = 10 ng, inhibitor 130 uM
  Cycle Threshold: 23.18 and 23.24
[6]; Input RNA = 10 ng, inhibitor 655 uM
  Cycle Threshold: 23.01
[6]; Input RNA = 10 ng, inhibitor 1.3 mM
  Cycle Threshold: 23.02 and 23.04

## O=C(COc1ccc(I)cc1)c1c(O)cc(O)cc1O [compound 140553, 2-(4-iodo-phenoxy)-1-(2,4,6-tri-hydroxyphenyl)etha-none]
[4]
  DNase inhibition: little or no DNase inhibition

## CC(=O)Nc1ccc(N=Nc2c(S(=O)(=O)O)cc3cc(S(=O)(=O)O)cc(NC(C)=O)c3c2O)cc1 [acid violet7, acid violet 7]
[1]
  Ki: 71 µM

## O=S(=O)(O)c1cc(O)c2c(/N=C/c3ccccc3O)cc(S(=O)(=O)O)cc2c1 [compound 88947]
[1]
  KI: in-activeat 75uM

## Nc1cccc(C(=O)Nc2ccc3c(O)cc(S(=O)(=O)O)cc3c2)c1 [compound 1743]
[1]
  KI: in-activeat 75uM

## oligovinylsulfonic acid [OVA, reference compound]
[2]; 6.25 mM OVA, pancreatic lysate 1:20,000, mouse liver total RNA, 25 C 4 min
  protection of RNA from degradation: help remedy RNA degradation

## O=C(Nc1ccc(/N=N/c2ccc3cc(S(=O)(=O)O)cc(S(=O)(=O)O)c3c2)cc1)c1ccc(/N=N/c2c(O)ccc3cc(S(=O)(=O)O)cc(S(=O)(=O)O)c23)cc1 [compound 65841]
[1]
  Ki: 5 µM
